# ChEMBL document CHEMBL1208672, “Novel 8-arylated purines as inhibitors of glycogen synthase kinase” (Eur J Med Chem, 2010)
# Tests used:
# [1] = biological target: T1, Cyclin-dependent kinase 5/CDK5 activator 1 (Homo sapiens) (UniProt Q00535+Q15078); assay: Inhibition of CDK5/p25 assessed as residual activity at 1 uM relative to control; assay type: protein-complex assay
# [2] = biological target: Glycogen synthase kinase-3 alpha (Homo sapiens) (UniProt P49840); assay: Inhibition of human GSK3alpha assessed as residual activity at 1 uM relative to control
# [3] = biological target: T2, Glycogen synthase kinase-3 beta (Homo sapiens, UniProt P49841)
# Target sequence in this assay (P49841 whole entry): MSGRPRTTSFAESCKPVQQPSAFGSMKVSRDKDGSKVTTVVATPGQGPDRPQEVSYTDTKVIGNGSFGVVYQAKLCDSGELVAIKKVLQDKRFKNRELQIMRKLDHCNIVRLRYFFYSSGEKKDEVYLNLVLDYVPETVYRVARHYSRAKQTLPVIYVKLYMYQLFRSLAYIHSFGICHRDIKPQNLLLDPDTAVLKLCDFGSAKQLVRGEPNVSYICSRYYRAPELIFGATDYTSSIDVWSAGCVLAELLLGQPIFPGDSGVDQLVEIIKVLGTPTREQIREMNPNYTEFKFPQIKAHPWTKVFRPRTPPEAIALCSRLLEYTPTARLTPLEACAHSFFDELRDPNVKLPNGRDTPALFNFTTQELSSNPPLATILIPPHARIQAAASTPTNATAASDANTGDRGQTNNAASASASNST
# [4] = biological target: Mitogen-activated protein kinase 8 (Homo sapiens) (UniProt P45983); assay: Inhibition of JNK1 assessed as residual activity at 10 uM relative to control
# [5] = biological target: Mitogen-activated protein kinase 3 (Homo sapiens) (UniProt P27361); assay: Inhibition of ERK1 at 10 uM relative to control; design: scale not given: the % may be the effect or the level left
# [6] = biological target: T1, Cyclin-dependent kinase 5/CDK5 activator 1 (Homo sapiens); assay: Inhibition of CDK5/p25 assessed as residual activity at 10 uM relative to control; assay type: protein-complex assay
# [7] = biological target: Casein kinase I isoform alpha (Homo sapiens) (UniProt P48729); assay: Inhibition of CK1alpha1 assessed as residual activity at 10 uM relative to control
# [8] = biological target: Insulin-like growth factor 1 receptor (Homo sapiens) (UniProt P08069); assay: Inhibition of IGF1R assessed as residual activity at 10 uM relative to control
# [9] = biological target: Casein kinase II subunit alpha (Homo sapiens) (UniProt P68400); assay: Inhibition of CK2alpha assessed as residual activity at 10 uM relative to control
# [10] = biological target: T2, Glycogen synthase kinase-3 beta; assay: Inhibition of human GSK3-beta assessed as residual activity at 10 uM relative to control
# Target sequence in this assay (P49841 whole entry, looked up): as the sequence (P49841 whole entry) above
# [11] = biological target: Epidermal growth factor receptor (Homo sapiens) (UniProt P00533); assay: Inhibition of EGFR assessed as residual activity at 10 uM relative to control
# [12] = biological target: MAP kinase-activated protein kinase 2 (Homo sapiens) (UniProt P49137); assay: Inhibition of MAPKAPK2 assessed as residual activity at 10 uM relative to control
# [13] = biological target: T3, Tyrosine-protein kinase receptor TYRO3 (Homo sapiens) (UniProt Q06418); assay: Inhibition of TYRO3/SKY assessed as residual activity at 10 uM relative to control
# T3 sequence (whole entry): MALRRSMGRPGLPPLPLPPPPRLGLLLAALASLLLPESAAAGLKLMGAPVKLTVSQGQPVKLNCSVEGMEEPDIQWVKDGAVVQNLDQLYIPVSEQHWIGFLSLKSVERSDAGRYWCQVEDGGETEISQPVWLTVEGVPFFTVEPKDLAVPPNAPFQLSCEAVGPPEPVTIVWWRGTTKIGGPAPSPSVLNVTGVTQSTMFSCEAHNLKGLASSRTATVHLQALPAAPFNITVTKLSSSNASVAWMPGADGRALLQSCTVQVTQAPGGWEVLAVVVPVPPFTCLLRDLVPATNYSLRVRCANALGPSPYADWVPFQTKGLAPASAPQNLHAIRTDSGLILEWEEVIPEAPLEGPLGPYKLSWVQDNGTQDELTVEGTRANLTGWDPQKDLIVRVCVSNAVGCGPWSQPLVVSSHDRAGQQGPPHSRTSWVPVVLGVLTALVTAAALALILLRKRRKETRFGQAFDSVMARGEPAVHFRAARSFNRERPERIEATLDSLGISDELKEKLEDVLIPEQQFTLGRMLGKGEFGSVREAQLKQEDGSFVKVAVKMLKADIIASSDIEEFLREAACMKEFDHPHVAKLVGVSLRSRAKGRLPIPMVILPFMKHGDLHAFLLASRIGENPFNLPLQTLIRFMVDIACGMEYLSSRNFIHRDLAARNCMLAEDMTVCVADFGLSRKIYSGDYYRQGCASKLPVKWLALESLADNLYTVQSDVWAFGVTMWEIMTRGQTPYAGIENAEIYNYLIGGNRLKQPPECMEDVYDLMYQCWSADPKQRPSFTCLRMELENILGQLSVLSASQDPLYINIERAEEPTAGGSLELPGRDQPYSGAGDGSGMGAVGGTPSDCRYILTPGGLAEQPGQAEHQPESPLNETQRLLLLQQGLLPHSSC
# Glycogen synthase kinase-3 alpha (Homo sapiens), sequence (P49840 2-483 limits assumed): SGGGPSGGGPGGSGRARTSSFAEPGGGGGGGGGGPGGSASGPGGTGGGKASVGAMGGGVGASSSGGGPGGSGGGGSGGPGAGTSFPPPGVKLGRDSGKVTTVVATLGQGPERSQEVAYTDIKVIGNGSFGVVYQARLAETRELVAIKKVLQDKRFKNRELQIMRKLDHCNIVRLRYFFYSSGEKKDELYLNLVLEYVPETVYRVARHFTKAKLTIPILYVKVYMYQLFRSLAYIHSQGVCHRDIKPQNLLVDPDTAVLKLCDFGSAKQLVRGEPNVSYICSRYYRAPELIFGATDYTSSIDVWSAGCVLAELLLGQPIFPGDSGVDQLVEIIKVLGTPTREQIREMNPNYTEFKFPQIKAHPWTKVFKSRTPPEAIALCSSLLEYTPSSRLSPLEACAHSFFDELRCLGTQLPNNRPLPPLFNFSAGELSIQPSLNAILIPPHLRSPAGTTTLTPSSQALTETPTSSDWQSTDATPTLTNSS
# T1 sequence (Q00535 whole entry): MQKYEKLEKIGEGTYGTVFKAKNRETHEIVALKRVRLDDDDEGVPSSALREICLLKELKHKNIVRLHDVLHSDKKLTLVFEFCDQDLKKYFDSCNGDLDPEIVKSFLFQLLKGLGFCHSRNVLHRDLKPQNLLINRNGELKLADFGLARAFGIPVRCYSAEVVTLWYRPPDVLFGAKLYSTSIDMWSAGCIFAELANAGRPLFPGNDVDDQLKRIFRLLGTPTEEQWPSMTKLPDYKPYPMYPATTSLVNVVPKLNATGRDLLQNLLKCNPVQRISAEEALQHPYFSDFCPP
# T1 sequence (Q15078 99-307 partner limits assumed): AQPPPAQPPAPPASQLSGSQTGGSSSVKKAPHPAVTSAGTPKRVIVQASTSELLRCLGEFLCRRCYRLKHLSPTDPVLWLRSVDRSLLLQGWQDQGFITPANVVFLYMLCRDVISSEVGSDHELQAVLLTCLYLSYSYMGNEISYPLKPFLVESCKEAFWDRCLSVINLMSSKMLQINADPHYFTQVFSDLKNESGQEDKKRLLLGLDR
# Epidermal growth factor receptor (Homo sapiens), sequence (P00533 whole entry): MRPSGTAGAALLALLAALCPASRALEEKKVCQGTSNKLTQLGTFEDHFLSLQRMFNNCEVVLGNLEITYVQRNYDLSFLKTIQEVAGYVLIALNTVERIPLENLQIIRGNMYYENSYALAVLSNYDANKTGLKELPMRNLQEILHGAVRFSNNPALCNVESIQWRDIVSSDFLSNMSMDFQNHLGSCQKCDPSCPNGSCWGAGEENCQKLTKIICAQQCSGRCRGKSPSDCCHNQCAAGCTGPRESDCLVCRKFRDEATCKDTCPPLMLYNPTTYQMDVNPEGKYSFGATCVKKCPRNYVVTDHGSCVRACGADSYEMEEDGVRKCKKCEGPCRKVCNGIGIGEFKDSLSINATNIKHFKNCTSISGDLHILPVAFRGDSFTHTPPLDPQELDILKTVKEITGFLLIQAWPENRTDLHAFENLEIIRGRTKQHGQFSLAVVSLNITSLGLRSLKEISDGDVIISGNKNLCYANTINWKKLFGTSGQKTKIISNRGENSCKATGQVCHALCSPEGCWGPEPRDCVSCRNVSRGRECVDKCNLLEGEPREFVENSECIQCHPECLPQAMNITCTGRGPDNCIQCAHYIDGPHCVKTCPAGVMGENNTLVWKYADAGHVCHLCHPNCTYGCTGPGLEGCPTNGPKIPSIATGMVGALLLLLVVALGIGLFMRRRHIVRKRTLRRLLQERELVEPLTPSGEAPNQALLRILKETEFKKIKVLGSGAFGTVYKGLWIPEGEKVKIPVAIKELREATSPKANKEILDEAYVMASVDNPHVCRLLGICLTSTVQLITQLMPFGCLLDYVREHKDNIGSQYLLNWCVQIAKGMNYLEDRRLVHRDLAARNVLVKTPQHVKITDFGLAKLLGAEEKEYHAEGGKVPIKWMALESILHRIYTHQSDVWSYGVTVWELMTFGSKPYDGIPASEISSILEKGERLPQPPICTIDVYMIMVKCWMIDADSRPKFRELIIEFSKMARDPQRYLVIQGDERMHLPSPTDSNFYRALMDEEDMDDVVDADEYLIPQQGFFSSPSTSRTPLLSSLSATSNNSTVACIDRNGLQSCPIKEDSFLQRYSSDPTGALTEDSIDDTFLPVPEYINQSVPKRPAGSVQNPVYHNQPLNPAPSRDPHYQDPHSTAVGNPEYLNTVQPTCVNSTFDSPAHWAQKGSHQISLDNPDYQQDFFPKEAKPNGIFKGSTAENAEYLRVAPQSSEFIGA
# Casein kinase II subunit alpha (Homo sapiens), sequence (P68400 whole entry, looked up): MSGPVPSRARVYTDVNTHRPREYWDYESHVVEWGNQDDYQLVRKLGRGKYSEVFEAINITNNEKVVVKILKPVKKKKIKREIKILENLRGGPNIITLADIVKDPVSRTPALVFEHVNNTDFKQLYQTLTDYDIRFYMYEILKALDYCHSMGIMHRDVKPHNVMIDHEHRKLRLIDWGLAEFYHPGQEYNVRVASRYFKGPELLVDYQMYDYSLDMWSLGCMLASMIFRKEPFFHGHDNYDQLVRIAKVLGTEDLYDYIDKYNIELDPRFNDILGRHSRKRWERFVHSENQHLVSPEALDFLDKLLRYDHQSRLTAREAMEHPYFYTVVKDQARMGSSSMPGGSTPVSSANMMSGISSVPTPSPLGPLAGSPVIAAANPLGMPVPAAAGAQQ
# Mitogen-activated protein kinase 8 (Homo sapiens), sequence (P45983 whole entry): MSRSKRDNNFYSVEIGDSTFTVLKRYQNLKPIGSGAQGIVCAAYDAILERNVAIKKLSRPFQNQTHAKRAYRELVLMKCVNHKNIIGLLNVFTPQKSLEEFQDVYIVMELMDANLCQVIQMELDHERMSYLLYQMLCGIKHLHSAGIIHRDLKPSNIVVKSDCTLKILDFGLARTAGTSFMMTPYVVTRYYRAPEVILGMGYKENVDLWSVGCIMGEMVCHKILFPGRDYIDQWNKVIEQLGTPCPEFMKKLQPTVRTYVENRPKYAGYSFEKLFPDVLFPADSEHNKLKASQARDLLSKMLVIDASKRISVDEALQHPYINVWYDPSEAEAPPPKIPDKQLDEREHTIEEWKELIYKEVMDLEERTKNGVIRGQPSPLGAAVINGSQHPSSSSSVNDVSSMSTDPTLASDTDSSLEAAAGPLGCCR
# MAP kinase-activated protein kinase 2 (Homo sapiens), sequence (P49137 whole entry, looked up): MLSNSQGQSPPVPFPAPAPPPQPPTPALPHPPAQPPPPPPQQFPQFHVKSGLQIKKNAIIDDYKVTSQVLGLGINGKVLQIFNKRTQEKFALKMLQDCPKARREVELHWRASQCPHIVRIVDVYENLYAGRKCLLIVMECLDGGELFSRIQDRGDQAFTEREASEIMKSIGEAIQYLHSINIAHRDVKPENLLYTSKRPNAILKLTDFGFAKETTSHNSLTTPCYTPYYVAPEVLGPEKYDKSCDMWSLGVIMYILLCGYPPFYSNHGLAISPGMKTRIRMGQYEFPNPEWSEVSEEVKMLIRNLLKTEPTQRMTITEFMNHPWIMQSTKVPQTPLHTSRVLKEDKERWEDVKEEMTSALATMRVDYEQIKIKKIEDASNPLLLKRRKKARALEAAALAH
# Mitogen-activated protein kinase 3 (Homo sapiens), sequence (P27361 whole entry): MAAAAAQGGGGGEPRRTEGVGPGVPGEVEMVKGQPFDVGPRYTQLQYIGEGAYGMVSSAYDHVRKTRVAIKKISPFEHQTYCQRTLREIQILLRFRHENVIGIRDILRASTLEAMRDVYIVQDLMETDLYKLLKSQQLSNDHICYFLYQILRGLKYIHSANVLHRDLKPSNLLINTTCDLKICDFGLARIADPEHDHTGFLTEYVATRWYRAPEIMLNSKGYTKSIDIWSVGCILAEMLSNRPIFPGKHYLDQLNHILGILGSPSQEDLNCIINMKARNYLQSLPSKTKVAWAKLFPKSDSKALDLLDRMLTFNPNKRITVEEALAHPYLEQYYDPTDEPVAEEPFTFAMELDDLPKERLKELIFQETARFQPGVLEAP
# Casein kinase I isoform alpha (Homo sapiens), sequence (P48729 2-337 limits assumed): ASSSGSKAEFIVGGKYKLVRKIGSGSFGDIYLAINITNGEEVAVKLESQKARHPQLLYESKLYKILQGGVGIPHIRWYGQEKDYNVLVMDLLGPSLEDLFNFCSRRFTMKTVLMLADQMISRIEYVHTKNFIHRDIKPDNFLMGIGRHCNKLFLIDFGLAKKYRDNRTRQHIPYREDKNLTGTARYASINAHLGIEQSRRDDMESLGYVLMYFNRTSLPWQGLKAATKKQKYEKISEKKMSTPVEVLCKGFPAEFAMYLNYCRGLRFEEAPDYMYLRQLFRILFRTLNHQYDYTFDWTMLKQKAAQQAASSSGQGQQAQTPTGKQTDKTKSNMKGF
Activity [1] [%],Activity [2] [%],Compound,further results
102,69,N#Cc1cccc(-c2nc3c(NC(=O)c4ccccc4)ncnc3[nH]2)c1,
100,,Cn1c(-c2cccc(F)c2)nc2c(N3CCCC3)ncnc21,
100,,COc1ccc(CNc2ncnc3c2nc(-c2ccccc2)n3C)cc1,
93,,COc1ccc(CNc2ncnc3[nH]c(-c4ccccc4)nc23)cc1,
104,47,O=C(Nc1ncnc2[nH]c(/C=C/c3ccccc3)nc12)c1ccccc1,
102,60,O=C(Nc1ncnc2[nH]c(-c3cccc(Cl)c3)nc12)c1ccccc1,
99,,Cn1c(-c2ccccc2)nc2c(NCc3cccnc3)ncnc21,
102,71,COc1ccc(C(=O)Nc2ncnc3[nH]c(-c4cccc(Cl)c4)nc23)cc1,
103,79,CC(=O)Nc1ncnc2[nH]c(-c3cccc(C#N)c3)nc12,
101,34,CCCCC(=O)Nc1ncnc2[nH]c(-c3cccc(C#N)c3)nc12,
104,96,COc1ccc(C(=O)Nc2ncnc3[nH]c(/C=C/c4ccccc4)nc23)cc1,
100,,c1cncc(-c2nc3c(N4CCCC4)ncnc3[nH]2)c1,
102,31,CCCCC(=O)Nc1ncnc2[nH]c(-c3ccc4ccccc4c3)nc12,IC50 [3]: > 20000 nM
97,,Cn1c(-c2ccc(Cl)cc2)nc2ncnc(N3CCCC3)c21,
103,55,CCCCC(=O)Nc1ncnc2[nH]c(/C=C/c3ccccc3)nc12,
99,,COc1ccc(CNc2ncnc3nc(-c4cccc(F)c4)n(C)c23)cc1,
101,99,C(=C\c1nc2c(NCCN3CCOCC3)ncnc2[nH]1)/c1ccccc1,
101,,CC(=O)Nc1ncnc2[nH]c(-c3ccccc3)nc12,
103,,CCCCC(=O)Nc1ncnc2[nH]c(-c3ccccc3)nc12,
,,CCCCC(=O)Nc1ncnc2nc(-c3cccc(C#N)c3)[nH]c12,IC50 [3]: 1220 nM

Activity [1] [%],Activity [2] [%],Compound,further results
99,,CC(C)C(=O)Nc1ncnc2[nH]c(-c3ccccc3)nc12,
102,67,O=C(Nc1ncnc2[nH]c(-c3ccccc3)nc12)c1ccccc1,
101,,c1cncc(-c2nc3c(OCC4CCCCC4)ncnc3[nH]2)c1,
54,,c1ccc(-c2nc3c(OC4CCCC4)ncnc3[nH]2)cc1,
100,,Cn1c(-c2ccccc2)nc2c(N3CCCC3)ncnc21,
98,49,CC(=O)Nc1ncnc2[nH]c(-c3ccc4ccccc4c3)nc12,
100,17,O=C(Nc1ncnc2[nH]c(-c3cccc(Cl)c3)nc12)C1CC1,IC50 [3]: 365 nM
99,,Cn1c(-c2cccc(F)c2)nc2c(NC(=O)C3CC3)ncnc21,
101,87,C(=C\c1nc2c(N3CCCC3)ncnc2[nH]1)/c1ccccc1,
83,57,c1cncc(-c2nc3c(OC4CCCC4)ncnc3[nH]2)c1,
101,,O=C(Nc1ncnc2[nH]c(-c3ccc4ccccc4c3)nc12)C1CC1,Activity [4]: 99.2%; Activity [5]: 99.4%; Activity [6]: 91.4%; Activity [7]: 91.9%; Activity [8]: 100%; Activity [9]: 59.5%; Activity [10]: 18.4%; Activity [11]: 91.6%; Activity [12]: 101%; Activity [13]: 78.2%
,,N#Cc1cccc(-c2nc3ncnc(Nc4ccccc4)c3[nH]2)c1,IC50 [3]: 26 nM
107,43,COc1ccc(C(=O)Nc2ncnc3[nH]c(-c4cccnc4)nc23)cc1,
96,,O=C(Nc1ncnc2[nH]c(-c3ccccc3)nc12)C1CC1,
102,,CC(C)CC(=O)Nc1ncnc2[nH]c(-c3ccccc3)nc12,
100,58,C(=C\c1nc2c(Nc3ccccc3)ncnc2[nH]1)/c1ccccc1,
96,,COc1ccc(CNc2ncnc3c2nc(-c2cccc(F)c2)n3C)cc1,
103,30,N#Cc1cccc(-c2nc3c(NC(=O)C4CC4)ncnc3[nH]2)c1,IC50 [3]: 781 nM
71,,c1cncc(-c2nc3c(N4CCOCC4)ncnc3[nH]2)c1,
102,61,O=C(Nc1ncnc2[nH]c(-c3cccnc3)nc12)c1ccccc1,

Activity [1] [%],Activity [2] [%],Compound,further results
100,55,O=C(Nc1ncnc2[nH]c(/C=C/c3ccccc3)nc12)C1CC1,
101,,Cn1c(-c2ccc([N+](=O)[O-])cc2)nc2ncnc(N3CCCC3)c21,
102,,c1cncc(CNc2ncnc3[nH]c(-c4cccnc4)nc23)c1,
63,2,N#Cc1cccc(-c2nc3c(Nc4ccccc4)ncnc3[nH]2)c1,
85,,CN(C)c1ncnc2[nH]c(-c3ccccc3)nc12,
96,,Cn1c(-c2cccc(F)c2)nc2c(NCc3ccccc3)ncnc21,
101,,Cn1c(-c2ccc([N+](=O)[O-])cc2)nc2ncnc(NCc3ccccc3)c21,
67,,O=C(Nc1ncnc2[nH]c(-c3ccccc3)nc12)C1CCCCN1 (centres undefined),
93,,O=C(Nc1ncnc2[nH]c(-c3ccccc3)nc12)C1CCCN1 (centres undefined),
105,,COc1ccc(CNc2ncnc3nc(-c4ccc(Cl)cc4)n(C)c23)cc1,
96,84,C(=C\c1nc2c(NCc3cccnc3)ncnc2[nH]1)/c1ccccc1,
95,,COc1ccc(CNc2ncnc3[nH]c(-c4cccnc4)nc23)cc1,
101,92,O=C(Nc1ncnc2[nH]c(/C=C/c3ccccc3)nc12)c1cccc(Br)c1,
,,O=C(Nc1ncnc2nc(-c3ccc4ccccc4c3)[nH]c12)C1CC1,IC50 [3]: 169 nM
84,,c1ccc(-c2nc3c(NCc4cccnc4)ncnc3[nH]2)cc1,
100,83,O=C(Nc1ncnc2[nH]c(-c3ccc4ccccc4c3)nc12)c1ccccc1,
84,,c1ccc(CNc2ncnc3[nH]c(-c4ccccc4)nc23)cc1,
102,,COc1ccc(-c2nc3ncnc(NCc4ccccc4)c3n2C)cc1,
63,5,c1ccc(Nc2ncnc3[nH]c(-c4ccccc4)nc23)cc1,Activity [4]: 93.3%; Activity [5]: 110%; Activity [6]: 59.8%; Activity [7]: 100%; Activity [8]: 96.2%; Activity [9]: 77%; Activity [10]: 18.6%; Activity [11]: 32.7%; Activity [12]: 78.2%; Activity [13]: 96.7%
,,c1ccc(Nc2ncnc3nc(-c4ccccc4)[nH]c23)cc1,IC50 [3]: 16 nM

Compound,Activity [1] [%],Activity [2] [%],further results
CN[C@@H]1C[C@H]2O[C@@](C)([C@@H]1OC)n1c3ccccc3c3c4c(c5c6ccccc6n2c5c31)C(=O)NC4,98.4,,
